Source: ChEMBL document CHEMBL1777746, “1,5-Substituted nipecotic amides: selective PDE8 inhibitors displaying diastereomer-dependent microsomal stability” (Bioorg Med Chem Lett, 2011)

Assays:
[1] = Intrinsic clearance in human liver microsomes; type: ADME, Microsome
[2] = Half life in human liver microsomes; type: ADME, Microsome
[3] = Lipophilicity, log D of the compound; type: physicochemical; conditions: octanol/water
[4] = Dissociation constant, pKa of the compound; type: physicochemical
[5] = target: High affinity cAMP-specific and IBMX-insensitive 3',5'-cyclic phosphodiesterase 8B (Homo sapiens, UniProt O95263); experiment: Inhibition of PDE8B
[6] = Clearance in rat; type: ADME, organism-based; conditions: in vivo
[7] = Oral bioavailability in rat; type: ADME, organism-based; conditions: in vivo
[8] = Volume of distribution at steady state in rat; type: ADME, organism-based; conditions: in vivo, read-out: Vdss

Chain of High affinity cAMP-specific and IBMX-insensitive 3',5'-cyclic phosphodiesterase 8B (O95263 whole entry): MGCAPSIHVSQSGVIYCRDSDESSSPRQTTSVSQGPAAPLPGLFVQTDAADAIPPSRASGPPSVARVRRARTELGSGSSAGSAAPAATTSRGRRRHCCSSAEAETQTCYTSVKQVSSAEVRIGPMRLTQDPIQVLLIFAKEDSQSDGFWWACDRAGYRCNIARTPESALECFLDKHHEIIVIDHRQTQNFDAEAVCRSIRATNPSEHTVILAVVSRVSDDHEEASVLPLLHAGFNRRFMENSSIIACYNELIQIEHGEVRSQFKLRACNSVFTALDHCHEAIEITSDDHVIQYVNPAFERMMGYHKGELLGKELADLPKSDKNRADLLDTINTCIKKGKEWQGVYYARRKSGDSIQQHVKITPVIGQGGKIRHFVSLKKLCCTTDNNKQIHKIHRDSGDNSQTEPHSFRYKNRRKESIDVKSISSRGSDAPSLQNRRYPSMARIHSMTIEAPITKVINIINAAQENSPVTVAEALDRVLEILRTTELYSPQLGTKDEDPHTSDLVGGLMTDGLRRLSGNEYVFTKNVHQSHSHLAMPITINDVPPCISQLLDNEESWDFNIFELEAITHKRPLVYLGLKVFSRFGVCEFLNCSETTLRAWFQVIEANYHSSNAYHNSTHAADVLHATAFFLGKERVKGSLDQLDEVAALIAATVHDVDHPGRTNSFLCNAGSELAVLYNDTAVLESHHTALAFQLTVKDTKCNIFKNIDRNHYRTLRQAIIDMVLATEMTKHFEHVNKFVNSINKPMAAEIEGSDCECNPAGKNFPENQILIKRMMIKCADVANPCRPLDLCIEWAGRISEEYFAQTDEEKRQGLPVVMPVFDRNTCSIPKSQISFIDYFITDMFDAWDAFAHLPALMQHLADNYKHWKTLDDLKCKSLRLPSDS

Row | microsomal CLint [1] [µL/min/mg] | half-life [2] [min] | other results | SMILES
1 | 120 | 8.15 |  | CC[C@H]1C[C@@H](C(=O)NC[C@H]2CCCO2)CN(Cc2nc(-c3ccccc3)oc2C)C1
2 | 290 |  |  | Cc1cccc(CNC(=O)[C@@H]2C[C@@H](c3nnc(C)o3)CN(Cc3nc(-c4ccccc4)oc3C)C2)n1
3 | 118 | 7.71 |  | CC[C@H]1C[C@@H](C(=O)NCc2cccc(C)n2)CN(Cc2nc(-c3ccccc3)oc2C)C1
4 | 105 |  |  | Cc1cccc(CNC(=O)[C@@H]2C[C@@H](c3nc(C)no3)CN(Cc3nc(-c4ccccc4)oc3C)C2)n1
5 | 110 | 8.9 |  | CC[C@@H]1C[C@@H](C(=O)NCc2cccc(N)n2)CN(Cc2nc(N3CCOCC3)oc2C)C1
6 | 49 | 20.5 |  | Cc1oc(-c2ccccc2)nc1CN1CCC[C@@H](C(=O)NCc2cccc(N)n2)C1
7 | 131 | 7.45 |  | CC[C@@H]1C[C@@H](C(=O)NC[C@@H]2CCCO2)CN(Cc2nc(N3CCOCC3)oc2C)C1
8 | 190 |  |  | CC[C@@H]1C[C@@H](C(=O)NC[C@H]2CCCO2)CN(Cc2nc(-c3ccncn3)[nH]c2C)C1
9 |  |  | logD [3]: 1; logD ([3]; read-out: logD): 0.8; pKa [4]: 7.2 | COCC1CC(C(=O)NC[C@H]2CCCO2)CN(Cc2nc(N3CCOCC3)oc2C)C1 (stereo not given in full)
10 | > 320 | < 3 |  | CC[C@@H]1C[C@@H](C(=O)NC[C@H]2CCCO2)CN(Cc2nc(-c3ccccc3)oc2C)C1
11 | 19.9 | 49.2 |  | COC[C@H]1C[C@@H](C(=O)NCC2CCOCC2)CN(Cc2nc(-c3ccncn3)[nH]c2C)C1
12 | 320 | < 3 |  | CC[C@@H]1C[C@@H](C(=O)NCC2CCOCC2)CN(Cc2nc(-c3ccccc3)oc2C)C1
13 | < 8 | > 120 |  | COC[C@H]1C[C@@H](C(=O)NC[C@H]2CCCO2)CN(Cc2nc(N3CCOCC3)oc2C)C1
14 |  |  | IC50 [5]: > 10 µM | Cc1cccc(CNC(=O)C2CN(Cc3nc(-c4ccccc4)oc3C)CCO2)n1 (stereo not given)
15 | 31.4 | 31.1 |  | CC[C@H]1C[C@@H](C(=O)NCc2cccc(N)n2)CN(Cc2nc(N3CCOCC3)oc2C)C1
16 | 19.3 | 50.7 |  | COC[C@H]1C[C@@H](C(=O)NCC2CCOCC2)CN(Cc2nc(N3CCOCC3)oc2C)C1
17 | 69.1 | 14.1 |  | Cc1oc(-c2ccccc2)nc1CN1CCC[C@@H](C(=O)NC[C@@H]2CCCO2)C1
18 | 40.3 | 24.2 |  | COC[C@H]1C[C@@H](C(=O)NC[C@H]2CCCO2)CN(Cc2nc(-c3ccccc3)oc2C)C1
19 | 320 | < 3 |  | CC[C@@H]1C[C@@H](C(=O)NC[C@@H]2CCCO2)CN(Cc2nc(-c3ccccc3)oc2C)C1
20 | 239 | 4.09 |  | COC[C@@H]1C[C@@H](C(=O)NCC2CCOCC2)CN(Cc2nc(-c3ccccc3)oc2C)C1
21 | 31.7 | 30.8 |  | COC[C@@H]1C[C@@H](C(=O)NCC2CCOCC2)CN(Cc2nc(N3CCOCC3)oc2C)C1

Row | microsomal CLint [1] [µL/min/mg] | half-life [2] [min] | other results | SMILES
22 | 142 | 6.88 |  | CC[C@@H]1C[C@@H](C(=O)NCC2CCOCC2)CN(Cc2nc(N3CCOCC3)oc2C)C1
23 | 84 | 11.6 |  | Cc1oc(-c2ccccc2)nc1CN1CCC[C@@H](C(=O)NC[C@H]2CCCO2)C1
24 |  |  | IC50 [5]: > 10 µM | Cc1cccc(CNC(=O)[C@@H]2CCN(Cc3nc(-c4ccccc4)oc3C)C2)n1
25 | 105 | 9.34 |  | Cc1oc(-c2ccccc2)nc1CN1CCCC(C(=O)NCC2CCOCC2)C1 (stereo not given)
26 | 233 | 4.2 |  | COC[C@@H]1C[C@@H](C(=O)NC[C@H]2CCCO2)CN(Cc2nc(-c3ccccc3)oc2C)C1
27 |  |  | clearance [6]: 98 mL/min/kg; bioavailability [7]: 7%; Vd [8]: 1.4 L/kg | CC[C@@H]1C[C@@H](C(=O)NCc2cccc(C)n2)CN(Cc2nc(-c3ccccc3)oc2C)C1
28 | > 300 |  |  | Cc1oc(-c2ccccc2)nc1CN1C[C@H](C(=O)NCc2cccc(N)n2)C[C@@H](c2ccccc2)C1
29 | 290 | < 3 |  | Cc1cccc(CNC(=O)[C@H]2C[C@H](c3nnc(C)o3)CN(Cc3nc(-c4ccccc4)oc3C)C2)n1
30 | 18.9 | 51.7 |  | CC[C@H]1C[C@@H](C(=O)NC[C@@H]2CCCO2)CN(Cc2nc(N3CCOCC3)oc2C)C1
31 | 41 | 23.7 |  | COC[C@@H]1C[C@@H](C(=O)NC[C@H]2CCCO2)CN(Cc2nc(N3CCOCC3)oc2C)C1
32 | 40.6 | 24.1 |  | CC[C@H]1C[C@@H](C(=O)NCC2CCOCC2)CN(Cc2nc(N3CCOCC3)oc2C)C1
33 | 304 | < 3 |  | COC[C@H]1C[C@H](C(=O)NCc2cccc(C)n2)CN(Cc2nc(-c3ccccc3)oc2C)C1
34 | 99.5 | 9.17 |  | COC[C@H]1C[C@@H](C(=O)NCc2cccc(C)n2)CN(Cc2nc(-c3ccccc3)oc2C)C1
35 | 304 | 3 |  | CC[C@H]1C[C@H](C(=O)NCc2cccc(C)n2)CN(Cc2nc(-c3ccccc3)oc2C)C1
36 | 182 | 5.68 |  | Cc1noc([C@@H]2C[C@@H](C(=O)NC[C@@H]3CCCO3)CN(Cc3nc(-c4ccccc4)oc3C)C2)n1
37 | 63 | 15.5 |  | COC[C@@H]1C[C@@H](C(=O)NCC2CCOCC2)CN(Cc2[nH]c(-c3ccncn3)nc2C)C1
38 | 290 | < 3 |  | Cc1cccc(CNC(=O)[C@H]2C[C@H](c3nc(C)no3)CN(Cc3nc(-c4ccccc4)oc3C)C2)n1
39 | 281 | 3.47 |  | CC[C@@H]1C[C@@H](C(=O)NCc2cccc(N)n2)CN(Cc2nc(-c3ccccc3)oc2C)C1
40 | 226 | 4.32 |  | CC[C@H]1C[C@@H](C(=O)NCC2CCOCC2)CN(Cc2nc(-c3ccccc3)oc2C)C1
41 | 158 | 5.76 |  | Cc1cccc(CNC(=O)C2CCCN(Cc3nc(-c4ccccc4)oc3C)C2)n1 (stereo not given)
42 | 195 | 5 |  | CC[C@@H]1C[C@@H](C(=O)NC[C@@H]2CCCO2)CN(Cc2[nH]c(-c3ccncn3)nc2C)C1
